In ChEMBL document CHEMBL2311456, “Synthesis and in vitro evaluation of potential anticancer activity of mono- and bis-1,2,3-triazole derivatives of bis-alkynes” (Eur J Med Chem, 2013):

Key:
B16 [1] = assay: Cytotoxicity against mouse B16 cells after 48 hrs by MTT assay; assay type: functional, cell-based; conditions: B16, 48 h
B16 [2] = assay: Ratio of propargyl amine IC50 to compound IC50 for mouse B16 cells after 48 hrs by MTT assay; assay type: functional

Compound	IC50 (B16 [1])	Ratio IC50 (B16 [2])
CC(=O)OCCn1cc(CNC(=O)c2cn(CC(=O)OCc3ccccc3)nn2)nn1	> 100 µM	
CCOC(=O)Cn1cc(C(=O)Nc2cccc(-c3cn(CCOC(C)=O)nn3)c2)nn1	> 100 µM	
C#Cc1ccc(NC(=O)c2cn(CCOC(C)=O)nn2)cc1	79 µM	
C#CCNC(=O)c1cn(CC(=O)OCc2ccccc2)nn1	> 100 µM	
CC(=O)OCCn1cc(C(=O)Nc2ccc(-c3cn(Cc4ccccc4)nn3)cc2)nn1	> 100 µM	
O=C(Nc1cccc(-c2cn(Cc3ccccc3)nn2)c1)c1cn(Cc2ccccc2)nn1	4.5 µM	
C#Cc1ccc(NC(=O)c2cn(CC(=O)OCC)nn2)cc1	> 100 µM	
C#Cc1ccc(NC(=O)c2cn(Cc3ccccc3)nn2)cc1	> 100 µM	
C#CC(=O)Nc1cccc(C#C)c1	0.3 µM	127
CC(=O)OCCn1cc(C(=O)Nc2ccccc2)nn1	> 100 µM	
C#CCNC(=O)c1cn(CCOC(C)=O)nn1	> 100 µM	
CC(=O)OCCn1cc(C(=O)Nc2ccc(-c3cn(CCOC(C)=O)nn3)cc2)nn1	> 100 µM	
C#Cc1cccc(NC(=O)c2cn(CC(=O)OCC)nn2)c1	91 µM	
C#CC(=O)Nc1ccc(C#C)cc1	6.3 µM	
CC(=O)OCCn1cc(-c2cccc(NC(=O)c3cn(Cc4ccccc4)nn3)c2)nn1	25.1 µM	
CCOC(=O)Cn1cc(-c2cccc(NC(=O)c3cn(Cc4ccccc4)nn3)c2)nn1	21 µM	
CCOC(=O)Cn1cc(-c2ccc(NC(=O)c3cn(Cc4ccccc4)nn3)cc2)nn1	36.3 µM	
CCOC(=O)Cn1cc(C(=O)Nc2cccc(-c3cn(Cc4ccccc4)nn3)c2)nn1	20.4 µM	
CC(=O)OCCn1cc(CNC(=O)c2cn(Cc3ccccc3)nn2)nn1	28 µM	
C#CCNC(=O)C#C	38 µM	

Compound	IC50 (B16 [1])	Ratio IC50 (B16 [2])
CC(=O)OCCn1cc(-c2ccc(NC(=O)c3cn(Cc4ccccc4)nn3)cc2)nn1	13.2 µM	
CCOC(=O)Cn1cc(CNC(=O)c2cn(CC(=O)OCc3ccccc3)nn2)nn1	> 100 µM	
CC(=O)OCCn1cc(C(=O)NCc2cn(Cc3ccccc3)nn2)nn1	> 100 µM	
O=C(NCc1cn(Cc2ccccc2)nn1)c1cn(Cc2ccccc2)nn1	0.3 µM	
CC(=O)OCCn1cc(C(=O)Nc2cccc(-c3cn(Cc4ccccc4)nn3)c2)nn1	> 100 µM	
C#CCNC(=O)c1cn(Cc2ccccc2)nn1	65 µM	
CCOC(=O)Cn1cc(-c2cccc(NC(=O)c3cn(CCOC(C)=O)nn3)c2)nn1	63 µM	
CCOC(=O)Cn1cc(CNC(=O)c2cn(Cc3ccccc3)nn2)nn1	35 µM	
CCOC(=O)Cn1cc(C(=O)Nc2ccc(-c3cn(CCOC(C)=O)nn3)cc2)nn1	> 100 µM	
C#Cc1cccc(NC(=O)c2cn(CCOC(C)=O)nn2)c1	25.1 µM	
O=C(Nc1ccc(-c2cn(Cc3ccccc3)nn2)cc1)c1cn(Cc2ccccc2)nn1	> 100 µM	
CCOC(=O)Cn1cc(CNC(=O)c2cn(CCOC(C)=O)nn2)nn1	> 100 µM	
C#Cc1cccc(NC(=O)c2cn(Cc3ccccc3)nn2)c1	14.5 µM	
O=C(Nc1ccccc1)c1cn(Cc2ccccc2)nn1	93 µM	
CCOC(=O)Cn1cc(C(=O)Nc2ccccc2)nn1	> 100 µM	
CCOC(=O)Cn1cc(C(=O)Nc2cccc(-c3cn(CC(=O)OCC)nn3)c2)nn1	> 100 µM	
O=C(Cn1cc(C(=O)NCc2cn(Cc3ccccc3)nn2)nn1)OCc1ccccc1	22.4 µM	
CC(=O)OCCn1cc(C(=O)Nc2cccc(-c3cn(CCOC(C)=O)nn3)c2)nn1	> 100 µM	
CCOC(=O)Cn1cc(-c2ccc(NC(=O)c3cn(CCOC(C)=O)nn3)cc2)nn1	> 100 µM	
CC(=O)OCCn1cc(CNC(=O)c2cn(CCOC(C)=O)nn2)nn1	> 100 µM	
